Where two headings read alike, the source gives them in different places.
Tests used:
Caco-2 cells = settings: 4 h, 37 °C
physchem = settings: Recovery under stability condition
Description: These tests included assessing short-term stability at room temperature, long-term stability during storage at −20 °C for up to 45 days, and stability across three freeze-thaw cycles. Additionally, the stability of the analytes was tested in the media used for intestinal permeability assays, specifically HBSS with MES and HEPES buffers at pH 6.0 and 7.4.

in vitro = settings: human, Caco-2
Caco-2 cell monolayer = settings: Caco-2 monolayer, apical pH 6.0 / basolateral pH 7.4, 4 h, without verapamil as inhibitor

Compound	Cytotoxicity (LDH release) (Caco-2 cells; 50 µM)	Cytotoxicity (LDH release) (Caco-2 cells; 5 µM)	recovery (physchem) [%]	recovery at 36 d (physchem) [%]	efflux ratio (in vitro)	Apparent permeability (Papp) A→B (Caco-2 cell monolayer)	Apparent permeability (Papp) B→A (Caco-2 cell monolayer)
CC(C)NCC(O)COc1ccc(CC(N)=O)cc1 (stereo not drawn) [Atenolol, atenolol]	did not induce cytotoxicity						
CC(C)NCC(O)COc1cccc2ccccc12 (stereo not drawn) [Propranolol, propranolol]		did not induce cytotoxicity	86.5 ± 21	87.7 ± 5.12	~1	high	high
C=C[C@H]1C[N@@]2CC[C@H]1C[C@@H]2[C@@H](O)c1ccnc2ccc(OC)cc12 [Quinidine, quinidine]			87.5 ± 6.3	86.2 ± 1.2			
